Measurements taken from paper PMC12316891, “A bottom-up approach to find lead compounds in expansive chemical spaces” (Communications Chemistry, 2025).
Read-outs that look alike come from different tables or passages of the source.

Tests used:
[1] = target: T1, BRD4 (BD1) (Homo sapiens, UniProt O60885); assay: Competitive HTRF TR-FRET binding assay (displacement of acetylated histone H4 peptide); settings: for TR-FRET IC50 (nM) / IC50: 16-point titration 0.1 nM to 10 µM, n = 2, Negative = curve could not be fitted to a sigmoidal curve; for IC50: read-out: TR-FRET IC50
T1 construct: A pET28 plasmid containing residues 44–168 of BRD4 (BD1), a 6xHis tag, a TEV protease cleavage site; 6xHis (N, cleaved yes); made in house; host or cells: E. coli Rosetta (D3)
Procedure: To further quantitatively characterize the DSF/SPR hits compounds obtained in the single-dose screenings, we selected HTRF TR-FRET. Specifically, we employed a competitive HTRF TR-FRET experiment to measure the compound’s capacity to displace an acetylated peptide from the binding site of BRD4 (BD1). For each molecule, a 16-point concentration curve was titrated against the peptide-BRD (BD1) complex and incubated for 1.5 h. A compound was considered a positive binder if we could fit its titration curve to a sigmoidal curve to determine its IC50. […] Compound screening was carried out in 384-well, white, round-bottom, small-volume plates (CORNING) in a final volume of 20 µL of 50 mM HEPES (pH 7.4), 50 mM NaCl, 400 mM KF, 0.5 mM CHAPS, and 0.05% BSA. […] Then, the labeled anti-His6-XL665 antibody (CisBio) (10 nM) was added to the mixture and incubated for 15 min, before the Eu3+ cryptate-conjugated streptavidin (2 nM) (CisBio) was added and incubated for 15 min. All incubations were performed at room temperature. […] Titration of (+)−JQ1 was used as a positive control for each experiment.

[2] = target: T2, His6-BRD4 (BD1) (Homo sapiens, UniProt O60885); assay: Surface plasmon resonance (SPR) single-dose screening; format: binding; design: key to SPR RESULT: Positive: compounds were considered as SPR hits also when their average signal was further than two standard deviations apart from the average signal of the blank samples (1% DMSO); settings: for RUs at [10 µM]: SPR, compound 10 µM, 1% DMSO, n = 2, decimal comma; for SPR RESULT: single dose 10 µM, n = 2
T2 construct: A pET28 plasmid containing residues 44–168 of BRD4 (BD1), a 6xHis tag, a TEV protease cleavage site; made in house; host or cells: E. coli Rosetta (D3)

[3] = target: T1, BRD4 (BD1); assay: Differential scanning fluorimetry (DSF) single-dose thermal shift screening; format: binding; settings: read-out: ΔTm ºC at [10 µM]
[4] = DSF, compound 10 µM, BRD4 (BD1) 2 µM, n = 3, decimal comma

Compound	TR-FRET IC50 (nM) [1]	RUs at [10 µM] [2]	SPR RESULT [2]	ΔTm at 10 µM [3] [°C]	ΔTm at 10 µM [3, 4] [°C]	IC50 [1] [µM]	IC50 by HTRF TR-FRET, range in words ([1]; potency range or dose-response behaviour)
COc1cccc(-n2c(C)nnc2SCC(=O)NC2(CO)CCCCCCC2)c1 [Compound 27, COC=1C=CC=C(C1)N2C(C)=NN=C2SCC(=O)NC3(CO)CCCCCCC3]	Negative	28,33 ± 20,88 RUs	Negative	-0.98	–	–	–
COc1ccc(-n2c(C)nnc2SCC(=O)N2CC3(CCN(C)CC3)C2)cc1 [Compound 45, COC=1C=CC(=CC1)N2C(C)=NN=C2SCC(=O)N3CC4(C3)CCN(C)CC4]	Negative	9,8 ± 3,73 RUs	Negative	–	2.18	–	–
Cc1nn(C)cc1C(=O)NC1CCC2(CC1)CCN(C(=O)c1sc3nnc(C)c(C)c3c1N)CC2 [Compound 24, CC1=NN(C)C=C1C(=O)NC2CCC3(CC2)CCN(CC3)C(=O)C=4SC=5N=NC(C)=C(C)C5C4N]	–	40,95 ± 7,16 RUs	Positive	–	2.35	1.76	–
COc1ccc(-n2c(C)nnc2SCC(=O)Nc2cn(C)nc2C(N)=O)cc1 [Compound 17, COC=1C=CC(=CC1)N2C(C)=NN=C2SCC(=O)NC3=CN(C)N=C3C(=O)N]	–	9,07 ± 0,52 RUs	Positive	–	1.17	0.192	–
COc1ccc(NS(=O)(=O)c2cc(C(=O)Nc3ccc4nnc(C(C)C)n4c3)ccc2F)cc1 [Compound 14, COC=1C=CC(NS(=O)(=O)C=2C=C(C=CC2F)C(=O)NC=3C=CC4=NN=C(C(C)C)N4C3)=CC1]	–	23,29 ± 9,67 RUs	Negative	–	1.94	0.661	–
COc1cccc(-n2c(C)nnc2SCC(=O)Nc2ccc(C(F)F)cc2)c1 [Compound 43, COC=1C=CC=C(C1)N2C(C)=NN=C2SCC(=O)NC=3C=CC(=CC3)C(F)F]	–	32,1 ± 9,99 RUs	Positive	–	1.99	1.59	–
COc1cccnc1C(=O)N1CCC2(CC(NC(=O)c3occc3Br)c3ccccc3O2)C1 (stereo not drawn) [Compound 66, COC=1C=CC=NC1C(=O)N2CCC3(C2)CC(NC(=O)C=4OC=CC4Br)C=5C=CC=CC5O3]	–	20,41 ± 1,87 RUs	Positive	–	0.83	0.136	–
CCn1nnc2cc(C(=O)N3CCC(N(C)C(=O)C4CN(C)CCO4)C3)ccc21 (stereo not drawn) [Compound 36, CCN1N=NC=2C=C(C=CC12)C(=O)N3CCC(C3)N(C)C(=O)C4CN(C)CCO4]	Negative	6,83 ± 2,31 RUs	Negative	–	0.34	–	–
CC(NS(=O)(=O)c1cccc(-c2nnnn2C)c1)C1CCN(Cc2ccccc2)C1 (stereo not drawn) [Compound 46, CC(NS(=O)(=O)C=1C=CC=C(C1)C2=NN=NN2C)C3CCN(CC=4C=CC=CC4)C3]	–	19,71 ± 0,01 RUs	Positive	–	2.47	0.24	–
Cc1ncc(CNC(=O)NCc2cccc(S(=O)(=O)NC(C)C)c2)c(O)n1 [Compound 72, CC(C)NS(=O)(=O)C=1C=CC=C(CNC(=O)NCC=2C=NC(C)=NC2O)C1]	–	19,09 ± 5,61 RUs	Positive	–	0.51	0.0929	–
COc1ccc(-n2c(C)nnc2SCC(=O)NCC2(N)CCOCC2)cc1 [Compound 28, COC=1C=CC(=CC1)N2C(C)=NN=C2SCC(=O)NCC3(N)CCOCC3]	Negative	16,66 ± 3,56 RUs	Positive	–	0.36	–	–
COc1ccc(-n2c(C)nnc2SCC(=O)N(c2ccccc2)C2CC2)cc1 [Compound 48, COC=1C=CC(=CC1)N2C(C)=NN=C2SCC(=O)N(C3CC3)C=4C=CC=CC4]	–	4,63 ± 0,03 RUs	Negative	–	2.35	0.0532	–
CCCc1c(C(=O)N2CCOC(CN(C)C(=O)c3cccn3C)C2)[nH]c(C)c1C(C)=O (stereo not drawn) [Compound 26, CCCC1=C(NC(C)=C1C(=O)C)C(=O)N2CCOC(CN(C)C(=O)C3=CC=CN3C)C2]	–	22,04 ± 8,53 RUs	Negative	–	2.61	1.02	–
COC(C)CC(=O)N1CCC(C2(O)CCN(C(=O)c3sc4nnc(C)c(C)c4c3N)C2)CC1 (stereo not drawn) [Compound 39, COC(C)CC(=O)N1CCC(CC1)C2(O)CCN(C2)C(=O)C=3SC=4N=NC(C)=C(C)C4C3N]	–	11,34 ± 6,3 RUs	Negative	–	1.12	0.0789	–
COC(=O)c1cc(CNC(=O)C=Cc2cnc(C)[nH]c2=O)ccc1Cl [Compound 87, COC(=O)C=1C=C(CNC(=O)C=CC2=CN=C(C)NC2=O)C=CC1Cl]	–	15,1 ± 2,46 RUs	Positive	–	2.3	0.0111	low nM
O=C(Nc1cccc(C(=O)N2CCC(Cn3cc(C4(O)CCOCC4)nn3)CC2)c1)c1ccco1 [Compound 84, OC1(CCOCC1)C2=CN(CC3CCN(CC3)C(=O)C=4C=CC=C(NC(=O)C5=CC=CO5)C4)N=N2]	–	17,5 ± 1,9 RUs	Positive	–	1.16	0.0181	–
COc1ccc2c(c1)N(C(=O)c1cn(C)c(=O)c3ccccc13)CC2 [Compound 15, COC=1C=CC=2CCN(C(=O)C3=CN(C)C(=O)C=4C=CC=CC34)C2C1]	–	28,19 ± 22,85 RUs	Negative	–	1.71	1.01	–
Cc1nnc(NC(=O)CNC(c2ccc(Cl)cc2)c2ccccc2C(C)C)s1 (stereo not drawn) [Compound 80, CC(C)C=1C=CC=CC1C(NCC(=O)NC2=NN=C(C)S2)C=3C=CC(Cl)=CC3]	–	29,64 ± 5,36 RUs	Positive	–	-0.49	0.0236	–
COc1cccc(-n2c(C)nnc2SCC(=O)NC2CN(C(=O)C3CCOCC3)CC23CC3)c1 (stereo not drawn) [Compound 32, COC=1C=CC=C(C1)N2C(C)=NN=C2SCC(=O)NC3CN(CC43CC4)C(=O)C5CCOCC5]	–	3,3 ± 1,9 RUs	Negative	–	0.87	0.386	–
CCCc1c(C(=O)N(C)C2CN(C(=O)c3cc(C)n[nH]3)C2)[nH]c(C)c1C(C)=O [Compound 96, CCCC1=C(NC(C)=C1C(=O)C)C(=O)N(C)C2CN(C2)C(=O)C3=CC(C)=NN3]	–	16,1 ± 0,61 RUs	Positive	–	2.24	0.211	–
Cc1nnnn1-c1cc(F)cc(C(=O)N2CCN(C(=O)C(=O)NCC3CC3)C(C(C)C)C2)c1 (stereo not drawn) [Compound 41, CC(C)C1CN(CCN1C(=O)C(=O)NCC2CC2)C(=O)C=3C=C(F)C=C(C3)N4N=NN=C4C]	Negative	1,13 ± 7,64 RUs	Negative	–	1.7	–	–
Cc1ncc(C(=O)NCCn2cc(Cn3c(C)nc4ccccc43)nn2)c(=O)[nH]1 [Compound 83, CC1=NC=2C=CC=CC2N1CC3=CN(CCNC(=O)C4=CN=C(C)NC4=O)N=N3]	–	14,05 ± 12,27 RUs	Negative	–	0.78	0.325	–
CCCc1c(C(=O)N2CCCC2Cn2cc(-c3cc(C)nc(C)c3)nn2)[nH]c(C)c1C(C)=O (stereo not drawn) [Compound 61, CCCC1=C(NC(C)=C1C(=O)C)C(=O)N2CCCC2CN3C=C(N=N3)C=4C=C(C)N=C(C)C4]	–	15,14 ± 5,89 RUs	Negative	–	0.49	0.0794	–
CCn1nnc2cc(C(=O)N3CCC(CCNC(=O)c4nc(O)sc4C)C3)ccc21 (stereo not drawn) [Compound 31, CCN1N=NC=2C=C(C=CC12)C(=O)N3CCC(CCNC(=O)C=4N=C(O)SC4C)C3]	Negative	8,73 ± 4,6 RUs	Negative	–	0.02	–	–
COC1(CNC(=O)c2nscc2Br)CN(C(=O)C2CCS(=O)(=O)N2)C1 (stereo not drawn) [Compound 63, COC1(CNC(=O)C2=NSC=C2Br)CN(C1)C(=O)C3CCS(=O)(=O)N3]	Negative	13,51 ± 3,27 RUs	Negative	–	0.7	–	–
CCCc1c(C(=O)N2CCC(F)(F)C(CNC(=O)c3nc(C)c(C)s3)C2)[nH]c(C)c1C(C)=O (stereo not drawn) [Compound 25, CCCC1=C(NC(C)=C1C(=O)C)C(=O)N2CCC(F)(F)C(CNC(=O)C3=NC(C)=C(C)S3)C2]	–	22,43 ± 8,33 RUs	Negative	–	2.41	0.149	–
Cc1nnc(NC(=O)C2CCCN(C(=O)c3ccc(Br)c(F)c3)C2)s1 (stereo not drawn) [Compound 79, CC1=NN=C(NC(=O)C2CCCN(C2)C(=O)C=3C=CC(Br)=C(F)C3)S1]	Negative	33,58 ± 5,55 RUs	Positive	–	1.21	–	–
CCn1nnc2cc(C(=O)N3CCCN(C(=O)c4ccccc4Cl)C(c4ccccc4)C3)ccc21 (stereo not drawn) [Compound 34, CCN1N=NC=2C=C(C=CC12)C(=O)N3CCCN(C(C3)C=4C=CC=CC4)C(=O)C=5C=CC=CC5Cl]	–	23,05 ± 1,41 RUs	Positive	–	0.86	1.21	–
CN(C)C(=O)Sc1cc(NC(=O)c2cn(C)c(=O)c3ccccc23)ccc1Cl [Compound 53, CN(C)C(=O)SC=1C=C(NC(=O)C2=CN(C)C(=O)C=3C=CC=CC23)C=CC1Cl]	–	28,62 ± 5,34 RUs	Positive	–	1.09	1.04	–
